Four compounds from publication PMC6194350, “Catalytic Performance of a Class III Old Yellow Enzyme and Its Cysteine Variants” (Frontiers in Microbiology, 2018) can be followed below.

Structures are written as SMILES.

Common to all, as to assay type: biochemical
Assay [1] addresses T1, OYERo2a (WT) (Rhodococcus opacus, UniProt A0A1B1KA86).
T1 construct: gene O4328_33150; FMN 1:1; dimer by gel filtration; single Cys25
In words: steady-state kinetics, NADPH consumption at […] nm. The following applies: 50 mM phosphate pH 7.1, 25°C.

The target in assay [2] is T2, OYERo2a (WT) (Rhodococcus opacus, UniProt A0A1B1KA86, C25S, form not given).
T2 construct: gene O4328_33150; FMN 1:1; dimer by gel filtration; single Cys25
The experiment in a line: steady-state kinetics, NADPH consumption at […] nm. Conditions: 50 mM phosphate pH 7.1, 25°C.

Assay [3] has as its target T2, OYERo2a (WT). In words: steady-state kinetics, BNAH consumption at […] nm. Conditions: electron donor; 1 mM N-methylmaleimide, 50 mM phosphate pH 7.1, 25°C.
Assay [4] concerns the target T3, OYERo2a (WT) (Rhodococcus opacus, UniProt A0A1B1KA86, C25G, form not given).
T3 construct: gene O4328_33150; FMN 1:1; dimer by gel filtration; single Cys25
The experiment in a line: steady-state kinetics, BNAH consumption at […] nm. Conditions: electron donor; 1 mM N-methylmaleimide, 50 mM phosphate pH 7.1, 25°C.

Assay [5] deals with T4, OYERo2a (WT) (Rhodococcus opacus, UniProt A0A1B1KA86, C25A, form not given).
T4 construct: gene O4328_33150; FMN 1:1; dimer by gel filtration; single Cys25
In words: steady-state kinetics, BNAH consumption at […] nm. The following applies: electron donor; 1 mM N-methylmaleimide, 50 mM phosphate pH 7.1, 25°C.

In assay [6] the target is T1, OYERo2a (WT). In words: steady-state kinetics, BNAH consumption at […] nm. The following applies: electron donor; 1 mM N-methylmaleimide, 50 mM phosphate pH 7.1, 25°C.
Assay [7] deals with T4, OYERo2a (WT). The experiment in a line: steady-state kinetics, NADPH consumption at […] nm. Conditions: 50 mM phosphate pH 7.1, 25°C.
The target in assay [8] is T3, OYERo2a (WT). In words: steady-state kinetics, NADPH consumption at […] nm. Conditions: 50 mM phosphate pH 7.1, 25°C.
Assay [9] addresses T1, OYERo2a (WT). In words: residual activity after pre-incubation. Conditions: covalent (Cys25); 10 mM, 120 min, 50 mM phosphate pH 7.1, 4°C, dark, oxidized enzyme.

T2 sequence (A0A1B1KA86 entry or part of it C25S, form open): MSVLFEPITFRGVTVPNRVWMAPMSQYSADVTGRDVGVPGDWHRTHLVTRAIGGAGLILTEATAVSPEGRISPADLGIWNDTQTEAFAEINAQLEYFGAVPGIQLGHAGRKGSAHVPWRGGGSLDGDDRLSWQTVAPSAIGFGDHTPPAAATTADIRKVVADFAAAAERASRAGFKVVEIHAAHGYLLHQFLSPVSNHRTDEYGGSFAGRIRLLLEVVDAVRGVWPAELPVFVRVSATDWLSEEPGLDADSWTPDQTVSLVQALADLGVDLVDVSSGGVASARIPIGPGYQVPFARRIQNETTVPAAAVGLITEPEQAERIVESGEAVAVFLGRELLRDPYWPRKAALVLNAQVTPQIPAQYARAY
T4 sequence (A0A1B1KA86 entry or part of it C25A, form open): as the sequence (A0A1B1KA86 entry or part of it C25S, form open) above, with S25A counted along it
T1 sequence (A0A1B1KA86 entry or part of it): as the sequence (A0A1B1KA86 entry or part of it C25S, form open) above, with S25C counted along it
T3 sequence (A0A1B1KA86 entry or part of it C25G, form open): as the sequence (A0A1B1KA86 entry or part of it C25S, form open) above, with S25G counted along it

Turning to `O=C1C=CCCC1` [2-cyclohexen-1-one], the Km is 3500 µM at OYERo2a (WT) [1] (180 μM NADPH, read-out: WT) and 8900 µM on OYERo2a (WT) [2] (180 μM NADPH, read-out: C25S).

With `NC(=O)C1=CN(Cc2ccccc2)C=CC1` [BNAH], the Km at OYERo2a (WT) [3] was found to be 239 ± 24.3 µM; on OYERo2a (WT) [4], 517 ± 45 µM; on OYERo2a (WT) [5] it was 230 ± 17.8 µM; at OYERo2a (WT) [6], 169 ± 12.4 µM.

For `CN1C(=O)C=CC1=O` [N-methylmaleimide], the Km on OYERo2a (WT) [7] (180 μM NADPH, read-out: C25A) turned out to be 9.1 µM; on OYERo2a (WT) [1] (180 μM NADPH, read-out: WT), 9.6 µM; on OYERo2a (WT) [2] (180 μM NADPH, read-out: C25S) it was 30.4 µM; on OYERo2a (WT) [8] (180 μM NADPH, read-out: C25G) it was 94.4 µM. Besides, the relative activity entry on OYERo2a (WT) [9] is recorded as “while the OYERo2a became almost completely inactivated”.

For the compound `NC(=O)C1=CN([C@@H]2O[C@H](COP(=O)(O)OP(=O)(O)OC[C@H]3O[C@@H](n4cnc5c(N)ncnc54)[C@H](OP(=O)(O)O)[C@@H]3O)[C@@H](O)[C@H]2O)C=CC1` [NADPH], the Km turned out to be 121 ± 8.7 µM at OYERo2a (WT) [7] (electron donor, 1 mM N-methylmaleimide, read-out: C25A / NADPH); 34.8 ± 2 µM at OYERo2a (WT) [1] (electron donor, 1 mM N-methylmaleimide, read-out: WT / NADPH); 76.9 ± 4.1 µM at OYERo2a (WT) [2] (electron donor, 1 mM N-methylmaleimide, read-out: C25S / NADPH); 55.2 ± 2.3 µM at OYERo2a (WT) [8] (electron donor, 1 mM N-methylmaleimide, read-out: C25G / NADPH).
